Columns and labels:
BMK1 = BMK1 (Homo sapiens, UniProt Q13164); test: EGF-induced BMK1 activation in HeLa cells; assay type: cell-based; settings: 1 μM compound for one hour, EGF 17 min
ERK1/2 = test: EGF-induced ERK1/2 activation in HeLa cells; assay type: cell-based, human; settings: 1 μM compound for one hour, EGF 17 min

BMK1, sequence (Q13164 whole entry): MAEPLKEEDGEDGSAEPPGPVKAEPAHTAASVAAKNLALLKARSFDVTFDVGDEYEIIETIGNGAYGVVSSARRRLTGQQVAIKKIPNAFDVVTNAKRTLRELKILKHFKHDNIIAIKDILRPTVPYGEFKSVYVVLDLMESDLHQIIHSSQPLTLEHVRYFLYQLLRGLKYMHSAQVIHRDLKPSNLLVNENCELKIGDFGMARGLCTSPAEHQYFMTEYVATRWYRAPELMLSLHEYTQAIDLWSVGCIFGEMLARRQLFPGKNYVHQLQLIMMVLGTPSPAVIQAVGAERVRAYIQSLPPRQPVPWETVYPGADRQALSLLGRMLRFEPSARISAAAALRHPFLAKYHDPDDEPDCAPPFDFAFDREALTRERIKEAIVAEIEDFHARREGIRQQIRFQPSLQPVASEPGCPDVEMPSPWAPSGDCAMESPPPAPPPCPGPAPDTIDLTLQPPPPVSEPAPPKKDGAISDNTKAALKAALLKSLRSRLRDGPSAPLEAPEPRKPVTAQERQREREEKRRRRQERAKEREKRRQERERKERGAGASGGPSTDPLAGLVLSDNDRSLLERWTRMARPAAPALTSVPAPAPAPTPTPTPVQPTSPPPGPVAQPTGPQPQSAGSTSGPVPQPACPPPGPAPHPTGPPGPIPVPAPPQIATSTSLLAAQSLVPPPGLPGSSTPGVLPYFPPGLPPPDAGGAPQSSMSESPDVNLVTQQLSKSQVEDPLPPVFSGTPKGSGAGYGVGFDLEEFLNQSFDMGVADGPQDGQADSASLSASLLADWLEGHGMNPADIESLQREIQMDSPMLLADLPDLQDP

O=C(NOCC1CC1)c1ccc(F)c(F)c1Nc1ccc(I)cc1Cl [PD184352, reference compound]
Growth factor-induced activation of cellular BMK1 (BMK1): not BMK1 activation | Growth factor-induced activation of cellular ERK1/2 (ERK1/2): only blocked ERK1/2
